Converted amounts (≈) assume the structure as drawn. Some results are limits rather than exact numbers.

Assay in all cases: Antifungal activity assay, mycelial growth inhibitory rate method
Assay type in all cases: cell-based

Assay [1] deals with Alternaria solani Sorauer. The settings on record: for inhibition of growth at 100 µg/mL: 100 μg/mL in PDA medium, 28° C., 48-72 h, read-out: Average values of antifungal rate (%) A.s.; for IC50: mycelial growth, PDA medium, 100-0.0488 μg/mL. As for the experimental part:
(§1) The antifungal activities were evaluated against seven plant phytopathogenic fungi, by the mycelial growth inhibitory rate method, according to a reported method (Yu-Bin Bai, Meng Zhang, Ding Li, Yu Zhao, Liang-Zhu Huang, and Jin-Ming Gao. J. Agric. Food. Chem., 2023, 71, 16, 6236-6248). The target phytopathogenic fungi are Cytospora sp., Alternaria solani Sorauer, Alternaria alternate, Botrytis sp., Botrytis cinerea Pers., Colletotrichum gloeosporioides and Botryosphaeria dothidea. 100 μg/mL PDA mediums were prepared at 50° C. The petri dishes were incubated and cultivated at 28° C. for 48-72 h. Each sample was measured in triplicate, each colony diameter of all triplicates was measured 4 times by cross bracketing method. Hymexazol (Hym) as the positive control and the result of inhibition rate was calculated according to the formula: [formula] • where C represents the diameter of fungal growth on untreated PDA, and T represents the diameter of fungal growth on treated PDA. […] PDA mediums with different compound concentrations (100, 50, 25, 12.5, 6.25, 3.125, 1.5625, 0.78125, 0.3906, 0.1953, 0.0977, 0.0488 μg/mL) was prepared and their half inhibitory concentration (IC50) values were accurately tested. All half inhibitory concentration results are shown in Table 2 and Hymexazol (Hym) as the positive control.

For assay [2], the system named is Colletotrichum gloeosporioides. The settings on record: for inhibition of growth at 100 µg/mL: 100 μg/mL in PDA medium, 28° C., 48-72 h, read-out: Average values of antifungal rate (%) C.g.; for IC50: mycelial growth, PDA medium, 100-0.0488 μg/mL. As for the experimental part: as §1
The subject of another assay is Cytospora sp. The settings on record: for inhibition of growth at 100 µg/mL: 100 μg/mL in PDA medium, 28° C., 48-72 h, read-out: Average values of antifungal rate (%) C.s.; for IC50: mycelial growth, PDA medium, 100-0.0488 μg/mL. The protocol: as §1
The next assay relates to Botryosphaeria dothidea. Conditions: for inhibition of growth at 100 µg/mL: 100 μg/mL in PDA medium, 28° C., 48-72 h, read-out: Average values of antifungal rate (%) B.d.; for IC50: mycelial growth, PDA medium, 100-0.0488 μg/mL. As for the experimental part: as §1
The test system of the next assay is Botrytis sp. The settings on record: for inhibition of growth at 100 µg/mL: 100 μg/mL in PDA medium, 28° C., 48-72 h, read-out: Average values of antifungal rate (%) B.s.; for IC50: mycelial growth, PDA medium, 100-0.0488 μg/mL. As for the experimental part: as §1
For the next assay, the system named is Alternaria alternate. The settings on record: for inhibition of growth at 100 µg/mL: 100 μg/mL in PDA medium, 28° C., 48-72 h; for IC50: mycelial growth, PDA medium, 100-0.0488 μg/mL. The protocol:
as §1

Another assay deals with Botrytis cinerea Pers. Conditions: for inhibition of growth at 100 µg/mL: 100 μg/mL in PDA medium, 28° C., 48-72 h, read-out: Average values of antifungal rate (%) B.c.; for IC50: mycelial growth, PDA medium, 100-0.0488 μg/mL. The protocol: as §1

For the compound `C#CCOc1cc(OC)c(Cl)c2c1C(=O)[C@@]1(O2)C(OC)=CC(=O)C[C@H]1C` [Compound 01, 4 Position Propargyl Griseofulvin Derivative], the inhibition of growth at 100 µg/mL came to 100% in assay [1]; 91.3% in assay [2]; 96.6% with Cytospora sp.; 98% in the assay on Botryosphaeria dothidea; 100% in the assay on Botrytis sp.; 97.4% in the assay with Alternaria alternate. Also, the inhibition of growth at 100 µg/mL in the assay on Botrytis cinerea Pers. was found to be 98.6%. Besides, the IC50 in assay [1] was found to be 1.32 ± 0.01 µg/mL (≈ 3.5 µM); in assay [2], 0.06 ± 0.02 µg/mL (≈ 0.159 µM); in the assay with Cytospora sp., 1.84 ± 0.01 µg/mL (≈ 4.88 µM); in the assay with Botryosphaeria dothidea it was 1.35 ± 0.07 µg/mL (≈ 3.58 µM); with Botrytis sp. it was 2.84 ± 0.22 µg/mL (≈ 7.54 µM); in the assay with Alternaria alternate, 1.28 µg/mL (≈ 3.4 µM). This compound also yielded an IC50 with Botrytis cinerea Pers. of 2.04 ± 0.12 µg/mL (≈ 5.41 µM).
As for `COC1=CC(=O)C[C@@H](C)[C@]12Oc1c(Cl)c(OC)cc(OCc3ccsc3)c1C2=O` [Compound 07, 4 Position 3-Methylthiophene Griseofulvin Derivative], the inhibition of growth at 100 µg/mL in assay [1] worked out at 62.3%; in assay [2], 72.4%; with Cytospora sp. it was 54.7%; with Botryosphaeria dothidea, 42.3%; in the assay on Botrytis sp. it was 73.8%; with Alternaria alternate, 43.1%. In the assay with Botrytis cinerea Pers., the inhibition of growth at 100 µg/mL turned out to be 59.7%. In addition, the concentration for half-maximal inhibition (IC50) was above 50 µg/mL in assay [1]; 3.82 ± 0.09 µg/mL (≈ 8.78 µM) in assay [2]; above 50 µg/mL in the assay on Cytospora sp.; above 50 µg/mL with Botryosphaeria dothidea; 17.6 ± 0.27 µg/mL (≈ 40.4 µM) in the assay with Botrytis sp.; above 100 µg/mL in the assay on Alternaria alternate. In the assay on Botrytis cinerea Pers., the IC50 is above 25 µg/mL.
With `CCCCOc1cc(OC)c(Cl)c2c1C(=O)[C@@]1(O2)C(OC)=CC(=O)C[C@H]1C` [Compound 03, 4 Position Butyl Griseofulvin Derivative], the inhibition of growth at 100 µg/mL was found to be 26.9% in assay [1]; 68.4% in assay [2]; 29.1% with Cytospora sp.; 31.8% in the assay with Botryosphaeria dothidea; 62.3% in the assay on Botrytis sp.; 7.41% in the assay with Alternaria alternate. In addition, in the assay on Botrytis cinerea Pers., the inhibition of growth at 100 µg/mL amounted to 19.1%. Moreover, the IC50 is above 100 µg/mL in assay [1]; above 25 µg/mL in assay [2]; above 100 µg/mL in the assay with Cytospora sp.; above 100 µg/mL in the assay with Botryosphaeria dothidea; above 25 µg/mL with Botrytis sp.; above 100 µg/mL in the assay on Alternaria alternate. Moreover, the IC50 with Botrytis cinerea Pers. was above 100 µg/mL.
In the case of `COC1=CC(=O)C[C@@H](C)[C@]12Oc1c(Cl)c(OC)cc(OCC3CC3)c1C2=O` [Compound 04, 4 Position Cyclopropylmethyl Griseofulvin Derivative], the inhibition of growth at 100 µg/mL in assay [1] amounted to 70.5%; in assay [2] it was 48%; with Cytospora sp., 65.5%; with Botryosphaeria dothidea, 26.2%; in the assay on Botrytis sp., 69.8%; in the assay on Alternaria alternate, 41.4%. Also, the inhibition of growth at 100 µg/mL in the assay with Botrytis cinerea Pers. came out at 50.7%. Further, the IC50 in assay [1] was 17.85 ± 0.04 µg/mL (≈ 45.4 µM); in assay [2], above 100 µg/mL; with Cytospora sp., above 50 µg/mL; in the assay with Botryosphaeria dothidea, above 100 µg/mL; in the assay on Botrytis sp. it was above 100 µg/mL; in the assay with Alternaria alternate, above 25 µg/mL. In addition, in the assay with Botrytis cinerea Pers., the IC50 was above 100 µg/mL.
In the case of `COCOc1cc(OC)c(Cl)c2c1C(=O)[C@@]1(O2)C(OC)=CC(=O)C[C@H]1C` [Compound 05, 4 Position Methoxymethyl Griseofulvin Derivative], the inhibition of growth at 100 µg/mL in assay [1] came out at 75.4%; in assay [2], 71.7%; in the assay on Cytospora sp., 73.7%; with Botryosphaeria dothidea, 58.4%; in the assay with Botrytis sp. it was 88.6%; in the assay with Alternaria alternate it was 49.1%. In addition, the inhibition of growth at 100 µg/mL in the assay on Botrytis cinerea Pers. amounted to 66%. Also, the IC50 in assay [1] was 83.2 ± 14.5 µg/mL (≈ 217 µM); in assay [2], 16.1 ± 1.3 µg/mL (≈ 42.2 µM); in the assay on Cytospora sp., 81.4 ± 1.23 µg/mL (≈ 213 µM); in the assay with Botryosphaeria dothidea, above 25 µg/mL; with Botrytis sp., 31.6 ± 7.3 µg/mL (≈ 82.4 µM); in the assay on Alternaria alternate, above 50 µg/mL. In the assay on Botrytis cinerea Pers., this compound showed an IC50 above 25 µg/mL.
Take `Cc1cc(O)no1` [Hym, Hymexazol, reference compound]: the inhibition of growth at 100 µg/mL in assay [1] came out at 97.4%; in assay [2], 43.2%; with Cytospora sp., 48%; in the assay with Botryosphaeria dothidea, 55.6%; in the assay with Botrytis sp. it was 92.5%; in the assay on Alternaria alternate, 92.6%. The inhibition of growth at 100 µg/mL with Botrytis cinerea Pers. turned out to be 100%. For the same compound, the IC50 in assay [1] was 45.3 ± 14 µg/mL (≈ 457 µM); in assay [2], above 100 µg/mL; in the assay on Cytospora sp., above 100 µg/mL; in the assay with Botryosphaeria dothidea, above 50 µg/mL; with Botrytis sp. it was 13.5 ± 1.89 µg/mL (≈ 136 µM); with Alternaria alternate, 15.58 ± 0.13 µg/mL (≈ 157 µM). Further, the IC50 with Botrytis cinerea Pers. was above 6.25 µg/mL.
`C=CCOc1cc(OC)c(Cl)c2c1C(=O)[C@@]1(O2)C(OC)=CC(=O)C[C@H]1C` [Compound 02, 4 Position Allyl Griseofulvin Derivative]: the inhibition of growth at 100 µg/mL worked out at 77% in assay [1]; 70.1% in assay [2]; 52.7% in the assay with Cytospora sp.; 51.7% in the assay on Botryosphaeria dothidea; 85.2% in the assay with Botrytis sp.; 49.1% in the assay with Alternaria alternate. The inhibition of growth at 100 µg/mL in the assay on Botrytis cinerea Pers. came to 56.9%. Further, the IC50 in assay [1] was 14.9 ± 5.66 µg/mL (≈ 39.3 µM); in assay [2], 4.05 ± 0.46 µg/mL (≈ 10.7 µM); with Cytospora sp., above 50 µg/mL; in the assay with Botryosphaeria dothidea it was above 50 µg/mL; in the assay on Botrytis sp., 3.93 ± 0.8 µg/mL (≈ 10.4 µM); in the assay with Alternaria alternate it was above 100 µg/mL. The same compound returned an IC50 in the assay on Botrytis cinerea Pers. above 50 µg/mL.
On to `COC1=CC(=O)C[C@@H](C)[C@]12Oc1c(Cl)c(OC)cc(OCc3ccccc3F)c1C2=O` [Compound 06, 4 Position 2-Fluorobenzyl Griseofulvin Derivative], for which the inhibition of growth at 100 µg/mL in assay [1] stood at 13.1%; in assay [2], 75.6%; with Cytospora sp. it was 6.08%; in the assay on Botryosphaeria dothidea, 18.1%; in the assay on Botrytis sp., 69.8%; with Alternaria alternate, 3.45%. Besides, in the assay on Botrytis cinerea Pers., the inhibition of growth at 100 µg/mL is 55.6%. In addition, the IC50 in assay [1] was above 100 µg/mL; in assay [2] it was 1.92 ± 0.19 µg/mL (≈ 4.3 µM); in the assay on Cytospora sp., above 100 µg/mL; in the assay on Botryosphaeria dothidea, above 100 µg/mL; with Botrytis sp. it was above 25 µg/mL; with Alternaria alternate, above 100 µg/mL. Besides, the IC50 in the assay with Botrytis cinerea Pers. was above 50 µg/mL.
In the case of `COC1=CC(=O)C[C@@H](C)[C@]12Oc1c(Cl)c(OC)cc(OCc3ccc(C(C)=O)cc3)c1C2=O` [Compound 08, 4 Position 1-(4-(Methyl)Phenyl)-Ethanone Griseofulvin Derivative], the inhibition of growth at 100 µg/mL was determined as 0% in assay [1]; 26% in assay [2]; 7.43% in the assay with Cytospora sp.; 4.7% with Botryosphaeria dothidea; 47.6% with Botrytis sp.; 2.59% in the assay on Alternaria alternate. For the same compound, the inhibition of growth at 100 µg/mL in the assay with Botrytis cinerea Pers. is 43.1%. For the same compound, the IC50 (in assay [1]; in assay [2]; with Cytospora sp.; in the assay with Botryosphaeria dothidea; in the assay with Botrytis sp.; in the assay on Alternaria alternate) was above 100 µg/mL in each case. Besides, the IC50 in the assay with Botrytis cinerea Pers. was above 100 µg/mL.
Take `COC1=CC(=O)C[C@@H](C)[C@]12Oc1c(Cl)c(OC)cc(OC3CCCC3)c1C2=O` [Compound 09, 4 Position Cyclopentyl Griseofulvin Derivative]: the inhibition of growth at 100 µg/mL in assay [1] was determined as 45.9%; in assay [2] it was 40.9%; with Cytospora sp., 59.5%; in the assay on Botryosphaeria dothidea it was 34.2%; in the assay on Botrytis sp., 63.1%; with Alternaria alternate, 31%. Moreover, the inhibition of growth at 100 µg/mL with Botrytis cinerea Pers. was 59.7%. For the same compound, the IC50 is above 100 µg/mL in assay [1]; above 100 µg/mL in assay [2]; above 25 µg/mL with Cytospora sp.; above 100 µg/mL in the assay on Botryosphaeria dothidea; above 25 µg/mL in the assay with Botrytis sp.; above 100 µg/mL in the assay with Alternaria alternate. Further, the IC50 in the assay with Botrytis cinerea Pers. was above 25 µg/mL.

In general, IC50 refers to the concentration that gives 50% inhibition. A lower IC50 goes with higher potency.
